Assay results reported in PubChem BioAssay (NCI).
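Interpolation was linear, between the two tested concentrations surrounding the appropriate level; five concentrations were tested over 48 hours in 96-well plates. Here, GI50 denotes the concentration required for 50% inhibition of growth. TGI marks complete inhibition of growth.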

How the values were obtained:
Test in all cases: NCI-60 cell line screen, 48 h; in the data active = GI50 below about 0.43 µM; inactive = the rest
CAKI-1 renal = test system: CAKI-1 renal
SK-OV-3 ovarian = test system: SK-OV-3 ovarian
RXF 393 renal = test system: RXF 393 renal
U251 CNS = test system: U251 CNS
ACHN renal = test system: ACHN renal
OVCAR-3 ovarian = test system: OVCAR-3 ovarian
SK-MEL-28 melanoma = test system: SK-MEL-28 melanoma
EKVX NSCLC = test system: EKVX NSCLC
K-562 leukemia = test system: K-562 leukemia
NCI-H23 lung = test system: NCI-H23 lung
COLO 205 colon = test system: COLO 205 colon
SK-MEL-2 melanoma = test system: SK-MEL-2 melanoma
SR leukemia = test system: SR leukemia
RPMI-8226 leukemia = test system: RPMI-8226 leukemia
NCI-H522 lung = test system: NCI-H522 lung
A549 NSCLC = test system: A549 NSCLC
MCF7 breast = test system: MCF7 breast
SW-620 colon = test system: SW-620 colon
HCT-15 colon = test system: HCT-15 colon
MOLT-4 leukemia = test system: MOLT-4 leukemia
SF-295 CNS = test system: SF-295 CNS
HT29 colon = test system: HT29 colon
SN12C renal = test system: SN12C renal
BT-549 breast = test system: BT-549 breast
HL-60(TB) leukemia = test system: HL-60(TB) leukemia
M14 melanoma = test system: M14 melanoma
SK-MEL-5 melanoma = test system: SK-MEL-5 melanoma
UACC-257 melanoma = test system: UACC-257 melanoma
T-47D breast = test system: T-47D breast
OVCAR-5 ovarian = test system: OVCAR-5 ovarian
MDA-MB-435 = test system: MDA-MB-435
A498 renal = test system: A498 renal
DU-145 prostate = test system: DU-145 prostate
LOX IMVI melanoma = test system: LOX IMVI melanoma
UACC-62 melanoma = test system: UACC-62 melanoma
SF-268 CNS = test system: SF-268 CNS
NCI-H460 lung = test system: NCI-H460 lung
UO-31 renal = test system: UO-31 renal
IGROV1 ovarian = test system: IGROV1 ovarian
MALME-3M melanoma = test system: MALME-3M melanoma
NCI/ADR-RES ovarian = test system: NCI/ADR-RES ovarian
PC-3 prostate = test system: PC-3 prostate
KM12 colon = test system: KM12 colon
CCRF-CEM leukemia = test system: CCRF-CEM leukemia
OVCAR-8 ovarian = test system: OVCAR-8 ovarian
TK-10 renal = test system: TK-10 renal
HCT-116 colon = test system: HCT-116 colon
SNB-19 CNS = test system: SNB-19 CNS
SNB-75 CNS = test system: SNB-75 CNS
HCC-2998 colon = test system: HCC-2998 colon
HOP-92 NSCLC = test system: HOP-92 NSCLC
HOP-62 NSCLC = test system: HOP-62 NSCLC
786-0 renal = test system: 786-0 renal
SF-539 CNS = test system: SF-539 CNS
OVCAR-4 ovarian = test system: OVCAR-4 ovarian
MDA-MB-231 breast = test system: MDA-MB-231 breast
NCI-H226 lung = test system: NCI-H226 lung
HS 578T breast = test system: HS 578T breast

C[C@@H](N)C1CCC(C(=O)Nc2ccncc2)CC1 (stereo partly specified)
> 100 µM: TGI (CAKI-1 renal) | TGI (SK-OV-3 ovarian) | TGI (RXF 393 renal) | TGI (U251 CNS) | TGI (ACHN renal) | TGI (OVCAR-3 ovarian) | TGI (SK-MEL-28 melanoma) | TGI (EKVX NSCLC) | TGI (K-562 leukemia) | TGI (NCI-H23 lung) | TGI (COLO 205 colon) | TGI (SK-MEL-2 melanoma) | TGI (SR leukemia) | TGI (RPMI-8226 leukemia) | TGI (NCI-H522 lung) | TGI (A549 NSCLC) | TGI (MCF7 breast) | TGI (SW-620 colon) | TGI (HCT-15 colon) | TGI (MOLT-4 leukemia) | TGI (SF-295 CNS) | TGI (HT29 colon) | TGI (SN12C renal) | TGI (BT-549 breast) | TGI (HL-60(TB) leukemia) | TGI (M14 melanoma) | TGI (SK-MEL-5 melanoma) | TGI (UACC-257 melanoma) | TGI (T-47D breast) | TGI (OVCAR-5 ovarian) | TGI (MDA-MB-435) | TGI (A498 renal) | TGI (DU-145 prostate) | TGI (LOX IMVI melanoma) | TGI (UACC-62 melanoma) | TGI (SF-268 CNS) | TGI (NCI-H460 lung) | TGI (UO-31 renal) | TGI (IGROV1 ovarian) | TGI (MALME-3M melanoma) | TGI (NCI/ADR-RES ovarian) | TGI (PC-3 prostate) | TGI (KM12 colon) | TGI (CCRF-CEM leukemia) | TGI (OVCAR-8 ovarian) | TGI (TK-10 renal) | TGI (HCT-116 colon) | TGI (SNB-19 CNS) | TGI (SNB-75 CNS) | TGI (HCC-2998 colon) | TGI (HOP-92 NSCLC) | TGI (HOP-62 NSCLC) | TGI (786-0 renal) | TGI (SF-539 CNS) | TGI (OVCAR-4 ovarian) | TGI (MDA-MB-231 breast) | TGI (NCI-H226 lung) | TGI (HS 578T breast)
inactive: GI50 (CAKI-1 renal) > 40.4 µM | GI50 (SK-OV-3 ovarian) > 100 µM | GI50 (RXF 393 renal) > 100 µM | GI50 (U251 CNS) > 100 µM | GI50 (ACHN renal) > 100 µM | GI50 (OVCAR-3 ovarian) > 100 µM | GI50 (SK-MEL-28 melanoma) > 100 µM | GI50 (EKVX NSCLC) 15 µM | GI50 (K-562 leukemia) > 100 µM | GI50 (NCI-H23 lung) > 100 µM | GI50 (COLO 205 colon) > 100 µM | GI50 (SK-MEL-2 melanoma) > 100 µM | GI50 (SR leukemia) 36.4 µM | GI50 (RPMI-8226 leukemia) > 100 µM | GI50 (NCI-H522 lung) > 100 µM | GI50 (A549 NSCLC) > 100 µM | GI50 (MCF7 breast) > 100 µM | GI50 (SW-620 colon) > 100 µM | GI50 (HCT-15 colon) > 100 µM | GI50 (MOLT-4 leukemia) > 100 µM | GI50 (SF-295 CNS) > 100 µM | GI50 (HT29 colon) > 100 µM | GI50 (SN12C renal) > 100 µM | GI50 (BT-549 breast) > 88.4 µM | GI50 (HL-60(TB) leukemia) > 100 µM | GI50 (M14 melanoma) > 100 µM | GI50 (SK-MEL-5 melanoma) > 100 µM | GI50 (UACC-257 melanoma) > 100 µM | GI50 (T-47D breast) > 100 µM | GI50 (OVCAR-5 ovarian) > 100 µM | GI50 (MDA-MB-435) > 100 µM | GI50 (A498 renal) > 100 µM | GI50 (DU-145 prostate) > 100 µM | GI50 (LOX IMVI melanoma) > 100 µM | GI50 (UACC-62 melanoma) > 100 µM | GI50 (SF-268 CNS) > 83 µM | GI50 (NCI-H460 lung) > 100 µM | GI50 (UO-31 renal) > 34.1 µM | GI50 (IGROV1 ovarian) 81.6 µM | GI50 (MALME-3M melanoma) > 100 µM | GI50 (NCI/ADR-RES ovarian) > 100 µM | GI50 (PC-3 prostate) > 100 µM | GI50 (KM12 colon) > 100 µM | GI50 (CCRF-CEM leukemia) 51.2 µM | GI50 (OVCAR-8 ovarian) > 100 µM | GI50 (TK-10 renal) 8.7 µM | GI50 (HCT-116 colon) > 100 µM | GI50 (SNB-19 CNS) > 100 µM | GI50 (SNB-75 CNS) 5.58 µM | GI50 (HCC-2998 colon) > 100 µM | GI50 (HOP-92 NSCLC) 0.855 µM | GI50 (HOP-62 NSCLC) > 100 µM | GI50 (786-0 renal) > 100 µM | GI50 (SF-539 CNS) > 100 µM | GI50 (OVCAR-4 ovarian) > 100 µM | GI50 (MDA-MB-231 breast) > 100 µM | GI50 (NCI-H226 lung) > 100 µM | GI50 (HS 578T breast) 26.4 µM
